{"source": "paper PMC9367001", "about": "(Journal of Chemical Theory and Computation, 2022)", "biological_target": "IN05 HA trimer", "format": "binding, influenza A/Indonesia/5/2005 (H5 subtype)"}
{"substance": "α2,6-linked sialyl lactosamine [6-SLN]", "values": [{"measurement": "KD,MST", "result": "no detectable binding"}]}
